Laboratory results from patent US7144879B2, “Substituted metal-phthalocyanines, their preparation and the use thereof” (L. Molteni & C. Dei Fratelli, priority 2000, dated 2006).

Experiments:
Format in all cases: cell-based
[1] = test system: Escherichia coli (04; Gram-negative); test: Photoinactivation of E. coli, survival after photodynamic treatment; conditions: red light 650-750 nm, 50 mW/cm^2, PBS +5% DMSO, 5 min pre-incubation
Source text: (§1) The compounds synthesized have been assayed for their antifungal and antibacterial (Gram-positive e Gram-negative) activity. For the experiments the following micro-organisms were used: Candida albicans (ATCC10231; yeast), Staphylococcus aureus (ATCC 6538P, MRSA; Gram-positive), Escherichia coli (04; Gram-negative). All the micro-organisms were used in the experiments in a stationary state of growth. An example of experimental protocol used to assess the photoinactivation of micro-organisms is described as follows.
(§2) Cells in a stationary state of growth have been washed in physiological buffered saline solution (PBS) and diluted in order to obtain a cell suspension in the range 10^6÷10^9 cells/ml in PBS or appropriate medium.
(§3) Cell suspensions have then been treated with scalar aliquots of the photosensitising agent to be tested in the range 30÷0.01 μM, eventually as a photosensitizer conjugate. […] In order to determine the percentage of cell population after photoinactivation for each photosensitizer concentration, serially diluted samples resulting from the irradiation have been plated on Sabouraud Dextrose Agar (C. Albicans), on Tryptic Soy Agar (S. aureus), or on other suitable culture media and the data were compared with dark controls.
(§4) The irradiation is carried out with red light (650-750 nm), 50 mW/cm^2.

[2] = test system: Staphylococcus aureus (ATCC 6538P, MRSA; Gram-positive); test: Photoinactivation of S. aureus (MRSA), survival after photodynamic treatment; conditions: red light 650-750 nm, 50 mW/cm^2, PBS +5% DMSO, 5 min pre-incubation
Source text: as §1, §2, §3, §4

[3] = test system: Candida albicans (ATCC10231; yeast); test: Photoinactivation of C. albicans, survival after photodynamic treatment; conditions: 1 μM, red light 650-750 nm, 50 mW/cm^2, PBS +5% DMSO, 10 min pre-incubation
Source text: as §1, §2, §3, §4

3T3 cells = test: Survival of 3T3 cells (model of mammalian cells) after photodynamic treatment; conditions: red light 650-750 nm, 50 mW/cm^2, PBS +5% DMSO, 5 min pre-incubation
Description: as §4

erythrocytes = test: Haemolytic properties, dark and light treatment; conditions: for % Haemolysis (Light treatment) 30 J/cm^2 (50 mW/cm^2 × 10 min): light 30 J/cm^2 (50 mW/cm^2 × 10 min)

**Q.** With “2[1,3-bis-(trimethylammonium)2-propyloxy]zinc(II) phtalocyanine diiodide [Compound 18]” as the compound, how does the “Survival (%)” value ([1]; 1 μM, irradiation 1 min) read?
**A.** 100%

**Q.** And the “Survival (%)” value ([1]; 1 μM, irradiation 5 min)?
**A.** 100%

**Q.** And the “Survival (%)” value ([1]; 10 μM, irradiation 1 min)?
**A.** 100%

**Q.** And the “Survival (%)” value ([1]; 10 μM, irradiation 5 min)?
**A.** 2.34%

**Q.** What about the “Survival (%)” value ([2]; 1 μM, irradiation 1 min) of the same compound?
**A.** 0.0002%

**Q.** And the “Survival (%)” value ([2]; 1 μM, irradiation 5 min)?
**A.** 0.0001%

**Q.** What about the “Survival (%)” value ([2]; 10 μM, irradiation 1 min) of the same compound?
**A.** 0.0001%

**Q.** And the “Survival (%)” value ([2]; 10 μM, irradiation 5 min)?
**A.** 0.0001%

**Q.** And the “Survival (%)” value ([3]; irradiation 1 min)?
**A.** 0.0001%

**Q.** And the “Survival (%)” value ([3]; irradiation 5 min)?
**A.** 0.0001%

**Q.** And the “Survival (%)” value (3T3 cells; 1 μM, irradiation 1 min)?
**A.** 100%

**Q.** And the “Survival (%)” value (3T3 cells; 1 μM, irradiation 5 min)?
**A.** 97%

**Q.** And the “Survival (%)” value (3T3 cells; 10 μM, irradiation 1 min)?
**A.** 100%

**Q.** What about the “Survival (%)” value (3T3 cells; 10 μM, irradiation 5 min) of the same compound?
**A.** 94%

**Q.** Which results are given for `CN1CCC(Oc2ccc3c4[n]5c(c3c2)=NC2=NC(=Nc3c6ccccc6c([n]3[Zn]5)N=C3N=C(N=4)c4ccccc43)c3ccccc32)CC1` [Compound 4]?
**A.** % Haemolysis (Dark treatment) (erythrocytes; concentration 0.5 μM): 4.7%; % Haemolysis (Light treatment) 30 J/cm^2 (50 mW/cm^2 × 10 min) (erythrocytes; concentration 0.5 μM): 0.9%; % Haemolysis (Dark treatment) (erythrocytes; concentration 1 μM): 1.5%; % Haemolysis (Light treatment) 30 J/cm^2 (50 mW/cm^2 × 10 min) (erythrocytes; concentration 1 μM): 1.2%; % Haemolysis (Dark treatment) (erythrocytes; concentration 5 μM): 1.5%; % Haemolysis (Light treatment) 30 J/cm^2 (50 mW/cm^2 × 10 min) (erythrocytes; concentration 5 μM): 1.5%
